From patent US20150368616A1, “METHODS FOR INDUCTION OF CELL FATES FROM PLURIPOTENT CELLS” (THE CLEVELAND CLINIC FOUNDATION, priority 2013, published 2015)
Residues, ends and D or L forms follow the SMILES beside them. *: point of attachment. Cbz = O=C(OCc1ccccc1)*

Key:
[1] = tested on: E12.5 Ngn3 Delayed ON pancreas; assay: Ngn3 Delayed ON pancreas (E12.5) explant culture 4 days with and without DAPT, immunofluorescence; type: cell-based, mouse; conditions: four days ex-vivo
Text: D-K. Ngn3 Delayed ON pancreas (E12.5, doxycycline was provided at E7.5, E9.5 as in FIG. 2A) was isolated and subjected to 4 days of explant culture with and without DAPT as described in A,B. Immunofluorescence analyses of explant pancreas using select pancreatic markers, after 4 days in culture. D′: insert image showing the expression of glucagon.
Given that Dll1 and Hes1 were >2-fold increased in the E12.5 Ngn3 Delayed ON pancreas, we next asked to what degree Notch processing was also required for the enhanced Ngn3-mediated ductal cell formation in that model. Similar to above, microdissected E12.5 Ngn3 Delayed ON pancreas was cultured for four days ex-vivo with and without DAPT (FIG. 36D-K). In contrast to WT explants, Ngn3 Delayed ON pancreas developed in a quite similar manner as observed in-vivo; in addition to widespread ductal formation, glucagon-producing clusters were observed, and extremely few acinar cells were found (FIG. 36D, F, H). Similar results were obtained using staining for Hnf1β (data not shown). […] The Ngn3-mediated ductal cell formation was abrogated by DAPT treatment ([…]). […] We conclude that Notch signaling is required for both normal, as well as Ngn3-mediated, pancreatic ductal cell development, and that blocking this pathway promotes acinar and endocrine fates at the expense of ductal cells. Of note, at high levels of DAPT treatment, γ-secretase inhibition impacts endocrine subtype determination as well, and if a concomitant increase in Ngn3 protein is provided, the organ regains capacity for significant insulin-cell differentiation.

[2] = tested on: mouse WT pancreatic explants (E12.5); assay: Mouse WT pancreatic explants (E12.5) cultured 4 days with DAPT; staining and qRT-PCR; type: cell-based; conditions: for ductal cell development: 4 days
Procedure: […] Sections were stained against Mucin1, carboxypeptidase1 (CPA) and glucagon (Glu). C. qRT-PCR analysis of explants performed as in A, B. Pancreatic marker genes were assessed and fold-changes to WT explants treated with DMSO were calculated by DDct method, using GAPDH mRNA as internal standard.
Given that pancreatic ductal cells form in Ngn3 null mice, and because ductal genes have not been identified as direct Ngn3 targets, we set forth to determine if the cell-extrinsic mechanism involving Notch indeed was causal for the Ngn3 Delayed ON phenotype. We first tested if pancreatic ductal cell differentiation was dependent on Notch. We cultured WT pancreatic explants in the presence of DAPT (FIG. 35A, B, C). These experiments were based on E12.5 pancreas, as at that age, the majority of tip/trunk patterning has occurred, and cells are actively undergoing terminal fate decisions. These cultures developed significant numbers of Muc1+ ductal cells during culture in absence of DAPT (FIG. 35A), with a density exceeding that found in-vivo. Acinar cell development (CPA1+) proceeded in WT (FIG. 35A), albeit at a much reduced level compared to normal development. […] Given that Notch processing inhibition strongly affected cellular differentiation, we investigated this further by performing qRT-PCR on similar-type explants (FIG. 35C).

Ngn3 protein = Ngn3 protein stability and half-life in HepG2 cells, cycloheximide time course, Western blot; type: cell-based
Text: I. Protein stability and half-life assessment of Ngn3 in HepG2 cells. HepG2 cells were transfected with pTRE2-Ngn3 and pCMV-rtTA, treated with Doxycycline for 24 hr, and on the subsequent day pre-exposed to the proteasomal inhibitor MG132 for 5 hr. At time t=0, protein synthesis was inhibited by cycloheximide (CHX). Western blot using anti-Ngn3 antibodies are shown; b-actin served as a control, and remains stable. MG132 treatment leads to Ngn3 protein accumulation at t=0, and strongly stabilizes the protein, which rapidly decays in non-treated cells. J. Experiment conducted similarly as in I, but CMV-driven versions of Notch1 and Notch2 intracellular domains (N1ICD, N2ICD respectively) (left), or dominant-negative mastermind-like1 (DN-MAML1) were co-transfected with pTRE2-Ngn3. The left-most blot is overexposed to reveal the lower level of accumulated Ngn3 protein in presence of N1ICD, N2ICD, and the loss of Ngn3 upon CHX treatment. The analysis was done 1 hr post CHX treatment. […] K. Mouse pancreatic E14.5 explants were subjected to short-term treatment of CHX (1 hr) and MG132 (5 hr pre, and post-culture) as indicated. Total protein was isolated and subjected to anti-Ngn3 Western blotting. Levels of Ngn3 increase in presence of MG132, and decrease in response to CHX. Ngn3 protein levels increase correspondingly in presence of DAPT, a condition where the protein remains stable (CHX+DAPT lane). L. Stability measurements of Ngn3 in the presence of various cellular regulatory proteins. The experiment was conducted as in I and J. Decay scans (right) provide a measure of the decay rate of Ngn3. In all cases, the t=0 Ngn3 levels prior to CHX treatment is paralleled by the relative half-life of the protein. Destabilizing conditions include N1ICD, N2ICD, and Hes1. Stabilizing conditions include DN-MAML1 and DAPT-treatment. […] Hes1 is able to destabilize Ngn3 in the presence of DN-MAML1.
While Hes1 is known to directly repress Ngn3 expression, this would be an insufficient explanation for the observed results in which Ngn3 was driven by a Pdx1-tTA;tetO governed system. […] As destabilization of other bHLH factors, including NGN, and hASH1 has been observed, which has also implicated Notch, we then tested if a similar mechanism might operate in pancreas. As a means to mechanistically address this question, we first determined if Ngn3 protein half-life was regulated by proteasomal activity. Using three different heterologous cell lines (HepG2, Hek293, and CHO) conditionally expressing Ngn3, we observed a rapid turnover of Ngn3 protein after cycloheximide (CHX) addition; conditions where the control protein, beta-Actin, remained stable (FIG. 34I and data not shown). […]

[3] = tested on: forward differentiating hES culture; assay: Two stage protocol: Pan-CM 8 days then second stage medium with MG132, DAPT, forskolin, sodium propionate; transcript analysis; type: cell-based, human; conditions: 8 days Pan-CM then second stage medium
Procedure: As a means to optimize the differentiation of insulin producing cells a two stage protocol was used in which pluripotent cultures were incubated in the presence of Pan-CM for 8 days as a means of generating pancreatic precursors cellular population. The medium these cultures were incubated in were subsequently changed to a medium designed to enhance differentiation of a pancreatic precursor towards a beta-cell terminal fate. All second stage experiments were performed in a medium composed of DMEM/F12 containing 12 mM Glucose supplemented with 1% B27, 1% Pyruvate, 1 uM Alk5 Inh II, 500 ng/ml Noggin and 0.5 uM (1,25 OH2)-Vit D3.
Among the compounds assayed for the ability to increase insulin production in a forward differentiating culture was the proteosomal inhibitor MG132 which we used in the previous example to stabilize Ngn3 protein. We also included the gamma secretase inhibitor DAPT, which was shown in the previous example to greatly increase beta-cell formation in the developing embryonic pancreatic explant study. We also included the short fatty acid salt sodium propionate, which acts as an agonist of short-chain fatty acid receptors. We also included the adenylyl cyclase activator forskolin. We also included the nuclear hormone receptor agonist 1,25 (OH)2)-Vit D3, which binds to, and activates the VDR protein. We also used intermediate concentrations of glucose, shown by others to increase formation of insulin producing cells from pluripotent derivatives. These compounds were used individually or in combination (as outlined in FIG. 37 panel A) to increase insulin-producing endocrine cell formation in a short term Pan-CM treated forward differentiating hES culture system.

[4] = tested on: Forward differentiating hES cultures; assay: Pan-CM two weeks then maturation medium with daily MG132 pulse, transcript analysis; type: cell-based, human
Procedure: To successfully differentiate an insulin producing cell a two stage approach was developed. Schematically represented in panel A, pluripotent cultures were treated with Pan-CM for two weeks followed by a switch to a maturation medium (abbreviated MM within panel B) composed of DMEM/F12 with 12 mM glucose supplemented with 5 uM DAPT, 0.5 uM Vit D3, 1% B27, 1 uM Alk 5 Inhibitor and 1 mM Sodium Propionate. In addition cultures were treated with the proteasome inhibitor MG132 at 10 uM for a 4 hour pulse daily for the length of the experiment. We have previously shown that MG132 mediated inhibition of protein degradation promotes sustained Ngn3 signaling resulting in increased endocrine differentiation. […] Substantial increases in several of the endocrine specific genes are observed.
Forward differentiating hES cultures were incubated for two weeks in the presence of Pan-CM at which time culture conditions were changed to a defined maturation medium in addition to being treated daily with MG132. Control cultures remained within Pan-CM for the entire duration of the experiment. […] Transcript levels of Slc30A8, a gene associated with the transport of zinc during the processing of insulin, were increased ˜200 fold when forward differentiating cultures were exposed to MG132. […] It is important to note that while the absolute Glucagon transcript level fold increase was greater than that of insulin, when comparing the effects of forward differentiating cultures treated with Mg132 as to those which were solely treated with Pan-CM there was an ˜5 fold greater increase in relative Glucagon transcript levels as compared to an ˜24 fold greater increase in Insulin transcript levels. […] A similar low increase was also noted for the intestinal specific transcripts Cdx2 and Gucy2c genes, with only an ˜15 and ˜30 fold increase over hES transcript levels.
Also it is important to note that while all of the transcripts assayed throughout this series of experiments were increased in the cultures treated with MG132 the increase in pancreas specific transcripts was always far greater than the increases observed in non-pancreas specific transcripts (i.e., transcripts representative of the liver and intestines).

endogenous Ngn3 = assay: Mouse pancreatic E14.5 explants treated with CHX, MG132, DAPT; anti-Ngn3 Western blotting; type: cell-based; conditions: E14.5 mouse pancreatic explants, MG132 5 hr
Text: I. Protein stability and half-life assessment of Ngn3 in HepG2 cells. HepG2 cells were transfected with pTRE2-Ngn3 and pCMV-rtTA, treated with Doxycycline for 24 hr, and on the subsequent day pre-exposed to the proteasomal inhibitor MG132 for 5 hr. At time t=0, protein synthesis was inhibited by cycloheximide (CHX). Western blot using anti-Ngn3 antibodies are shown; b-actin served as a control, and remains stable. MG132 treatment leads to Ngn3 protein accumulation at t=0, and strongly stabilizes the protein, which rapidly decays in non-treated cells. J. Experiment conducted similarly as in I, but CMV-driven versions of Notch1 and Notch2 intracellular domains (N1ICD, N2ICD respectively) (left), or dominant-negative mastermind-like1 (DN-MAML1) were co-transfected with pTRE2-Ngn3. The left-most blot is overexposed to reveal the lower level of accumulated Ngn3 protein in presence of N1ICD, N2ICD, and the loss of Ngn3 upon CHX treatment. The analysis was done 1 hr post CHX treatment. […]
While Hes1 is known to directly repress Ngn3 expression, this would be an insufficient explanation for the observed results in which Ngn3 was driven by a Pdx1-tTA;tetO governed system. […] As a means to mechanistically address this question, we first determined if Ngn3 protein half-life was regulated by proteasomal activity. […]

[5] = two weeks Pan-CM then maturation medium, MG132 daily

## C[C@H](NC(=O)Cc1cc(F)cc(F)c1)C(=O)N[C@H](C(=O)OC(C)(C)C)c1ccccc1 [DAPT, N—[N-(3,5-Diflurophenacetyl-L-alanyl)]-S-phenylglycine t-Butyl Ester]
[1]
  Ngn3-mediated ductal cell formation: abrogated
  Pdx1+/Ins+ endocrine cells: numerous
  acinar density (CPA1+ cells): much increased
  glucagon-expressing cells: correspondingly reduced
[2]; 100 μM DAPT
  ductal cell development: fully abolished
[2]; 100 μM DAPT, qRT-PCR
  Gcg expression: reduced
  Ins1, Ins2 expression: further enhanced
[2]; 25-50 μM DAPT
  ductal cell development: significantly reduced
[2]; qRT-PCR
  Ngn3, NeuroD1, Nkx6.1 expression: dose-dependent increases
  Sox9 expression: Sox9 expression was reduced
  acinar gene expression (Cpa1, Cpa2, Ptf1a): strongly promoted
Ngn3 protein; HepG2 cells, DAPT at 50 μM
  total Ngn3 protein levels and stability: increase in total Ngn3 protein levels

## CC(C)C[C@@H](C=O)NC(=O)[C@H](CC(C)C)NC(=O)[C@H](CC(C)C)NC(=O)OCc1ccccc1 [MG132, benzyl (S)-4-methyl-1-((S)-4-methyl-1-((S)-4-methyl-1-oxopentan-2-ylamino)-1-oxopentan-2-ylamino)-1-oxopentan-2-ylcarbamate] (Cbz-Leu-Leu-Leu-aldehyde)
[3]
  Glucagon transcript levels: remaining approximately the same as controls
  Hnf6 transcript increase: ~90 fold
  Insulin transcript levels increase over controls: ~80 fold
  Nkx6.1 transcript increase: ~12.5 fold
  Pdx1 transcript increase: ~40 fold
[4]
  AFP transcript increase: ~85 fold
  Albumin transcript increase: ~50 fold
  Cdx2 increase over hES transcript levels: ~15 fold
  Glucagon transcript increase compared to cultures solely treated with Pan-CM: ~5 fold
  Gucy2c increase over hES transcript levels: ~30 fold
  Insulin transcript increase compared to cultures solely treated with Pan-CM: ~24 fold
[4]; forward differentiating culture
  effect of long incubations on the culture: overall detrimental effect on the culture
[4]; [5]
  Glucagon absolute relative level over hES levels: ~2000 fold
  Insulin absolute relative level over hES levels: ~600 fold
  Mafa relative increase over control conditions: ~200 fold
  Pax4 relative increase over control conditions: ~300 fold
  Slc30A8 transcript levels increase: ~200 fold
Endogenous Ngn3
  loss of endogenous Ngn3 following exposure to CHX: abrogated
Ngn3 protein; HepG2 cells exposed to MG132, CHX time course
  half-life of Ngn3 (T1/2): > 3 h

B1: Ngn3: pro-endocrine bHLH factor, 214 amino acids (protein, UniProt Q9Y4Z2 1-214, looked up)
chain: MTPQPSGAPTVQVTRETERSFPRASEDEVTCPTSAPPSPTRTRGNCAEAEEGGCRGAPRKLRARRGGRSRPKSELALSKQRRSRRKKANDRERNRMHNLNSALDALRGVLPTFPDDAKLTKIETLRFAHNYIWALTQTLRIADHSLYALEPPAPHCGELGSPGGSPGDWGSLYSPVSQAGSLSPAASLEERPGLLGATFSACLSPGSLAFSDFL
modifications: full-length
notes: pro-endocrine bHLH factor, 214 amino acids
Ngn3 protein; HepG2 cells co-expressing N1ICD or N2ICD
  half-life of Ngn3 (T1/2): < 15 ′
Ngn3 protein; HepG2 cells, CHX time course, non-treated
  half-life of Ngn3 (T1/2): ~30 ′
